In US8492559B2, “Substituted indole compounds” (Gruenenthal GmbH, priority 2009, dated 2013):

Biological target: T1, human B1R receptor (hB1R) (Homo sapiens, UniProt P46663)
T1 construct: expressed in transfected cells; host or cells: CHO K1 cells
T1 sequence (P46663 1-353): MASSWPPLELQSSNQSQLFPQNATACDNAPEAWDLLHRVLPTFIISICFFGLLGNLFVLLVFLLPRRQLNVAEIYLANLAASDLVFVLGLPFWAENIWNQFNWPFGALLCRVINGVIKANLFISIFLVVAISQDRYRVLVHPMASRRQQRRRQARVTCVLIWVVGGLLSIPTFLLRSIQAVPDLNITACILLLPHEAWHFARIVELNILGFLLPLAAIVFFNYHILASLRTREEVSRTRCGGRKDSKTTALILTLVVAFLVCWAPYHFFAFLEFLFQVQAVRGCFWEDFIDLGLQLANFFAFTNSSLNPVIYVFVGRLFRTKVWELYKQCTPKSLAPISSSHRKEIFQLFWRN
Assay: Functional investigation on the bradykinin 1 receptor (B1R), FLIPR Ca2+ assay, hB1R cells
Assay type: cell-based
Conditions: CHO-K1, 10 μM test substance; CHO K1 cells with human B1R; agonist Lys-Des-Arg9 bradykinin; % of maximum achievable inhibition; read-out: B1R antagonism, human [10 μM] % inhibition
Procedure: The agonistic or antagonistic action of substances can be quantified on the bradykinin 1 receptor (B1R) of the human and rat species with ectopically expressing cell lines (CHO K1 cells) and with the aid of a Ca^2+-sensitive dye (Fluo-4) using a fluorescent imaging plate reader (FLIPR). The indication in % activation is based on the Ca^2+ signal after addition of Lys-Des-Arg^9 bradykinin (0.5 nM) or Des-Arg^9 bradykinin (100 nM). Antagonists lead to a suppression of the Ca^2+ influx following administration of the agonist. The % inhibition in comparison with the maximum achievable inhibition is indicated.
1. Functional Investigation on the Bradykinin 1 Receptor (B1R)
The agonistic or antagonistic action of substances can be determined on the bradykinin 1 receptor (B1R) of the human and rat species with the following assay. According to this assay, the Ca^2+ inflow through the channel is quantified with the aid of a Ca^2+-sensitive dye (Fluo-4 type, Molecular Probes Europe BV, Leiden, Netherlands) in a fluorescent imaging plate reader (FLIPR, Molecular Devices, Sunnyvale, USA).
Chinese hamster ovary cells (CHO K1 cells) which are stably transfected with the human B1R gene (hB1R cells) or the B1R gene of the rat (rB1R cells) are used. For functional investigations these cells are plated-out onto black 96-well plates with a clear base (BD Biosciences, Heidelberg, Germany or Greiner, Frickenhausen, Germany) in a density of 20,000-35,000 cells/well. Overnight the cells are incubated at 37° C. and 5% CO2 in culture medium (hB1R cells: Ham's Nutrient Mixture F12, Gibco Invitrogen GmbH, Karlsruhe, Germany or DMEM, Sigma-Aldrich, Taufkirchen, Germany; rB1R cells: D-MEM/F12, Gibco Invitrogen, Karlsruhe, Germany) with 10 vol. % FBS (foetal bovine serum, Gibco Invitrogen GmbH, Karlsruhe, Germany or PAN Biotech GmbH, Aidenbach, Germany).
On the following day the cells are loaded with 2.13 μM Fluo-4 (Molecular Probes Europe BV, Leiden, Netherlands) in HBSS buffer (Hank's buffered saline solution, Gibco Invitrogen GmbH, Karlsruhe, Germany) with 2.5 mM probenecid (Sigma-Aldrich, Taufkirchen, Germany) and 10 mM HEPES (Sigma-Aldrich, Taufkirchen, Germany) for 60 min at 37° C. The plates are subsequently washed twice with HBSS buffer, and HBSS buffer which additionally contains 0.1% BSA (bovine serum albumin; Sigma-Aldrich, Taufkirchen, Germany), 5.6 mM glucose and 0.05% gelatine (Merck KGaA, Darmstadt, Germany) is added. After a further incubation of 20 minutes at room temperature, the plates are inserted into the FLIPR for Ca^2+ measurement.
Alternatively they are washed with buffer A (15 mM HEPES, 80 mM NaCl, 5 mM KCl, 1.2 mM CaCl2, 0.7 mM MgSO4, 2 g/l glucose, 2.5 mM probenecid) and loaded with buffer A with added 2.5 μM Fluo-4 and 0.025% Pluronic F127 (Sigma-Aldrich, Taufkirchen, Germany). The cells are then washed twice with buffer A and incubated for 30 minutes with buffer A, which additionally contains 0.05% BSA and 0.05% gelatine, at room temperature and then used for Ca^2+ measurement in the FLIPR. The Ca^2+-dependent fluorescence is measured here before and after addition of substances (λex=488 nm, λem=540 nm). The quantification is performed by measuring the highest fluorescence intensity (FC, fluorescence counts) over time.
The FLIPR protocol comprises two additions of substance. Test substances (10 μM) are first pipetted onto the cells and the Ca^2+ inflow is compared with the control (hB1R: Lys-Des-Arg^9 bradykinin>=50 nM; rB1R: Des-Arg^9 bradykinin 10 μM). The value in % activation based on the Ca^2+ signal after addition of Lys-Des-Arg^9 bradykinin (>=50 nM) or Des-Arg^9 bradykinin (10 μM) is obtained therefrom. After incubation for 10-20 minutes, Lys-Des-Arg^9 bradykinin (hB1R) or Des-Arg^9 bradykinin (rB1R) is applied in the EC80 concentration and the inflow of Ca^2+ is likewise determined.
Antagonists lead to a suppression of the Ca^2+ inflow. The % inhibition in comparison with the maximum achievable inhibition is calculated. […]

In the case of COc1cc(C)c(S(=O)(=O)Nc2cccc3ccn(CC(=O)N4CCC5(CC4)CCN(c4ccncc4)CC5)c23)c(C)c1 [G_CC-91, 4-Methoxy-2,6-dimethyl-N-[1-[2-oxo-2-(3-pyridin-4-yl-3,9-diazaspiro-[5.5]undecan-9-yl)-ethyl]-1H-indol-7-yl]-benzenesulfonic acid amide], the inhibition at 10 µM is reported as 100%.
